Patent US8759011B2, “Assay system for determining binding of hydrophobic drugs” (Nederlandse Organisatie voor …, priority 2009, dated 2014)

System: human plasma
Assay: plasma binding by partition extraction in dimethylsiloxane-coated 96-well plates
Format: in vitro ADME
Conditions: for counts in the polymer coating: one plate
Experimental: 96-wells deepwell plates (lot 1450-401 Perkin-Elmer Lifesciences) were coated with dimethylsiloxane by making the solutions A-H here below in n-hexane. The used dimethylsiloxane (Silicone rubber, GE Silicones, Bergen op Zoom, The Netherlands) has a density of 1.06. Solution H contains 9.54 g dimethylsiloxane in 300 ml n-hexane.
From solutions A-H 100 μl is pipetted in row A-H of each plate. Plates were dried to air for minimally 18 hours (overnight).
To each dilution of plasma (solutions 1-12) an identical amount of the compound to be tested is added (about […]/200 μl solution). […] The solutions are incubated with the compound overnight at 4°.
The plasma solutions 1-12 are added to corresponding columns 1-12 of each plate (200 μl/well). Also 200 μl was added to a separate vessel to be able to correct for (plasma concentration dependent) solubilization. The next day the plates are emptied, washed once with aqua bidest and dried. When sufficient dry in all wells 200 μl counting solution (Optiphase Hisafe 2, Perkin Elmer Lifesciences) is added and the plates are covered. After incubation for minimally 4 hours under gently shaking the radioactivity in each plate is determined using liquid scintillation counting with a MicroBeta device (Perkin Elmer).
Additionally a total count was determined for each well. The total count is the count in the polymer coating+the count in the remaining fluid. The latter was determined by isolating 25 μl from solution in each well prior to emptying, and mixing with Optiphase (Perkin Elmer) followed by liquid scintillation counting.
1. For each datapoint for which the total count was determined, the recovery of total radioactivity was determined by comparing with the counts of the reference spiking solution. Cells with a total recovery <75% were excluded from further data analysis.
2. From all rows containing polymer, the a-specific binding, i.e. the corresponding counts from the row without polymer, was substracted.
3. Curve fitting was applied using the following formula for each cell:
Predicted counts in coating=Tc/((1/ffp+1/fp−1)×(fp×Vw)/Kpdms/Vp)), where
The above formula was fitted using ffp and Kpdms target parameters to be optimized using the least squares regression method over all wells that were included in the data analysis, by calculating the squared difference between the measured counts in the coating and the predicted counts in the coating. Results

C=C1CC[C@H](O)C/C1=C/C=C1\CCC[C@]2(C)[C@@H]([C@H](C)CCCC(C)(C)O)CC[C@@H]12 [25-hydroxy vitamin D3] was tested, and the “Free fraction ± s.d.” value (fitted free fraction for 100% plasma, ratio between free fraction and total concentration, average of six 96 well plates) was 0.000502 ± 0.000060, the “counts in the polymer coating” value (plasma 0 ml/ml, coating 0 nl) was 1529 and the “counts in the polymer coating” value (plasma 0 ml/ml, coating 4.1 nl) was 2095. The “counts in the polymer coating” value (plasma 0 ml/ml, coating 10.2 nl) was 3498, the “counts in the polymer coating” value (plasma 0 ml/ml, coating 25.6 nl) was 4260 and the “counts in the polymer coating” value (plasma 0 ml/ml, coating 64 nl) was 5814. For the same molecule, the “counts in the polymer coating” value (plasma 0 ml/ml, coating 160 nl) was 7292, the “counts in the polymer coating” value (plasma 0 ml/ml, coating 400 nl) was 8015 and the “counts in the polymer coating” value (plasma 0 ml/ml, coating 1000 nl) was 8491. For the same molecule, the “counts in the polymer coating” value (plasma 0.0005 ml/ml, coating 0 nl) was 639, the “counts in the polymer coating” value (plasma 0.0005 ml/ml, coating 4.1 nl) was 1753 and the “counts in the polymer coating” value (plasma 0.0005 ml/ml, coating 10.2 nl) was 2581. The “counts in the polymer coating” value (plasma 0.0005 ml/ml, coating 25.6 nl) was 4428, the “counts in the polymer coating” value (plasma 0.0005 ml/ml, coating 64 nl) was 8145 and the “counts in the polymer coating” value (plasma 0.0005 ml/ml, coating 160 nl) was 12361. For the same molecule, the “counts in the polymer coating” value (plasma 0.0005 ml/ml, coating 400 nl) was 15727, the “counts in the polymer coating” value (plasma 0.0005 ml/ml, coating 1000 nl) was 16960 and the “counts in the polymer coating” value (plasma 0.0008 ml/ml, coating 0 nl) was 495. The “counts in the polymer coating” value (plasma 0.0008 ml/ml, coating 4.1 nl) was 1176, the “counts in the polymer coating” value (plasma 0.0008 ml/ml, coating 10.2 nl) was 1649 and the “counts in the polymer coating” value (plasma 0.0008 ml/ml, coating 25.6 nl) was 3019. The “counts in the polymer coating” value (plasma 0.0008 ml/ml, coating 64 nl) was 6029, the “counts in the polymer coating” value (plasma 0.0008 ml/ml, coating 160 nl) was 10164 and the “counts in the polymer coating” value (plasma 0.0008 ml/ml, coating 400 nl) was 13748. The “counts in the polymer coating” value (plasma 0.0008 ml/ml, coating 1000 nl) was 15479, the “counts in the polymer coating” value (plasma 0.001 ml/ml, coating 0 nl) was 419 and the “counts in the polymer coating” value (plasma 0.001 ml/ml, coating 4.1 nl) was 972. For the same molecule, the “counts in the polymer coating” value (plasma 0.001 ml/ml, coating 10.2 nl) was 1545, the “counts in the polymer coating” value (plasma 0.001 ml/ml, coating 25.6 nl) was 2658 and the “counts in the polymer coating” value (plasma 0.001 ml/ml, coating 64 nl) was 5501. The “counts in the polymer coating” value (plasma 0.001 ml/ml, coating 160 nl) was 9700, the “counts in the polymer coating” value (plasma 0.001 ml/ml, coating 400 nl) was 13183 and the “counts in the polymer coating” value (plasma 0.001 ml/ml, coating 1000 nl) was 15022. The “counts in the polymer coating” value (plasma 0.003 ml/ml, coating 0 nl) was 151, the “counts in the polymer coating” value (plasma 0.003 ml/ml, coating 4.1 nl) was 399 and the “counts in the polymer coating” value (plasma 0.003 ml/ml, coating 10.2 nl) was 603. For the same molecule, the “counts in the polymer coating” value (plasma 0.003 ml/ml, coating 25.6 nl) was 1258, the “counts in the polymer coating” value (plasma 0.003 ml/ml, coating 64 nl) was 2547 and the “counts in the polymer coating” value (plasma 0.003 ml/ml, coating 160 nl) was 5687. For the same molecule, the “counts in the polymer coating” value (plasma 0.003 ml/ml, coating 400 nl) was 9284, the “counts in the polymer coating” value (plasma 0.003 ml/ml, coating 1000 nl) was 11307 and the “counts in the polymer coating” value (plasma 0.005 ml/ml, coating 0 nl) was 109. For the same molecule, the “counts in the polymer coating” value (plasma 0.005 ml/ml, coating 4.1 nl) was 257, the “counts in the polymer coating” value (plasma 0.005 ml/ml, coating 10.2 nl) was 428 and the “counts in the polymer coating” value (plasma 0.005 ml/ml, coating 25.6 nl) was 866. For the same molecule, the “counts in the polymer coating” value (plasma 0.005 ml/ml, coating 64 nl) was 1719, the “counts in the polymer coating” value (plasma 0.005 ml/ml, coating 160 nl) was 3804 and the “counts in the polymer coating” value (plasma 0.005 ml/ml, coating 400 nl) was 7410. For the same molecule, the “counts in the polymer coating” value (plasma 0.005 ml/ml, coating 1000 nl) was 10375, the “counts in the polymer coating” value (plasma 0.008 ml/ml, coating 0 nl) was 95 and the “counts in the polymer coating” value (plasma 0.008 ml/ml, coating 4.1 nl) was 212. The “counts in the polymer coating” value (plasma 0.008 ml/ml, coating 10.2 nl) was 372, the “counts in the polymer coating” value (plasma 0.008 ml/ml, coating 25.6 nl) was 686 and the “counts in the polymer coating” value (plasma 0.008 ml/ml, coating 64 nl) was 1331. The “counts in the polymer coating” value (plasma 0.008 ml/ml, coating 160 nl) was 3035, the “counts in the polymer coating” value (plasma 0.008 ml/ml, coating 400 nl) was 5863 and the “counts in the polymer coating” value (plasma 0.008 ml/ml, coating 1000 nl) was 9044. For the same molecule, the “counts in the polymer coating” value (plasma 0.01 ml/ml, coating 0 nl) was 90, the “counts in the polymer coating” value (plasma 0.01 ml/ml, coating 4.1 nl) was 169 and the “counts in the polymer coating” value (plasma 0.01 ml/ml, coating 10.2 nl) was 293. For the same molecule, the “counts in the polymer coating” value (plasma 0.01 ml/ml, coating 25.6 nl) was 523, the “counts in the polymer coating” value (plasma 0.01 ml/ml, coating 64 nl) was 1054 and the “counts in the polymer coating” value (plasma 0.01 ml/ml, coating 160 nl) was 2408. The “counts in the polymer coating” value (plasma 0.01 ml/ml, coating 400 nl) was 5093, the “counts in the polymer coating” value (plasma 0.01 ml/ml, coating 1000 nl) was 8309 and the “counts in the polymer coating” value (plasma 0.02 ml/ml, coating 0 nl) was 82. The “counts in the polymer coating” value (plasma 0.02 ml/ml, coating 4.1 nl) was 98, the “counts in the polymer coating” value (plasma 0.02 ml/ml, coating 10.2 nl) was 182 and the “counts in the polymer coating” value (plasma 0.02 ml/ml, coating 25.6 nl) was 278. For the same molecule, the “counts in the polymer coating” value (plasma 0.02 ml/ml, coating 64 nl) was 641, the “counts in the polymer coating” value (plasma 0.02 ml/ml, coating 160 nl) was 1394 and the “counts in the polymer coating” value (plasma 0.02 ml/ml, coating 400 nl) was 3130. For the same molecule, the “counts in the polymer coating” value (plasma 0.02 ml/ml, coating 1000 nl) was 5582, the “counts in the polymer coating” value (plasma 0.03 ml/ml, coating 0 nl) was 62 and the “counts in the polymer coating” value (plasma 0.03 ml/ml, coating 4.1 nl) was 75. For the same molecule, the “counts in the polymer coating” value (plasma 0.03 ml/ml, coating 10.2 nl) was 130, the “counts in the polymer coating” value (plasma 0.03 ml/ml, coating 25.6 nl) was 237 and the “counts in the polymer coating” value (plasma 0.03 ml/ml, coating 64 nl) was 409. The “counts in the polymer coating” value (plasma 0.03 ml/ml, coating 160 nl) was 988, the “counts in the polymer coating” value (plasma 0.03 ml/ml, coating 400 nl) was 2209 and the “counts in the polymer coating” value (plasma 0.03 ml/ml, coating 1000 nl) was 4228. The “counts in the polymer coating” value (plasma 0.04 ml/ml, coating 0 nl) was 55, the “counts in the polymer coating” value (plasma 0.04 ml/ml, coating 4.1 nl) was 68 and the “counts in the polymer coating” value (plasma 0.04 ml/ml, coating 10.2 nl) was 87. The “counts in the polymer coating” value (plasma 0.04 ml/ml, coating 25.6 nl) was 153, the “counts in the polymer coating” value (plasma 0.04 ml/ml, coating 64 nl) was 342 and the “counts in the polymer coating” value (plasma 0.04 ml/ml, coating 160 nl) was 722. For the same molecule, the “counts in the polymer coating” value (plasma 0.04 ml/ml, coating 400 nl) was 1681, the “counts in the polymer coating” value (plasma 0.04 ml/ml, coating 1000 nl) was 3295 and the “counts in the polymer coating” value (plasma 0.05 ml/ml, coating 0 nl) was 47. The “counts in the polymer coating” value (plasma 0.05 ml/ml, coating 4.1 nl) was 48, the “counts in the polymer coating” value (plasma 0.05 ml/ml, coating 10.2 nl) was 70 and the “counts in the polymer coating” value (plasma 0.05 ml/ml, coating 25.6 nl) was 153. The “counts in the polymer coating” value (plasma 0.05 ml/ml, coating 64 nl) was 296, the “counts in the polymer coating” value (plasma 0.05 ml/ml, coating 160 nl) was 588 and the “counts in the polymer coating” value (plasma 0.05 ml/ml, coating 400 nl) was 1354. The “counts in the polymer coating” value (plasma 0.05 ml/ml, coating 1000 nl) was 2501.
